pIC50: −log10 of the molar value.
What was measured:
Assay type in all cases: biochemical
[1] = molecular target: T1, human c-KIT (Thr544-Val976) (Homo sapiens, UniProt P10721); experiment: c-KIT kinase assay (HTScan kit, DELFIA); conditions: for inhibition at 0.1 µM: compound at 0.1 μM, read-out: c-KIT 0.1 μM, % of inhibition relative to control; for inhibition at 1 µM: compound at 1 μM, read-out: c-KIT 1 μM, % of inhibition relative to control
T1 construct: human c-KIT (Thr544-Val976); GST (N); purchased Cell Signaling Technology; host or cells: baculovirus expression system
How it was run: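 GST-tagged human c-KIT (Thr544-Val976) from baculovirus, with 1.5 μM biotinylated KDR Tyr-996 peptide and 20 μM ATP in HEPES pH 7.5 buffer containing Mg2+/Mn2+ and 1% DMSO. Enzyme and compound pre-incubated 5 min, reaction run 30 min at room temperature; phosphorylation detected by DELFIA.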

[2] = molecular target: T2, human VEGFR-2 (Val789-Val1356) (Homo sapiens, UniProt P35968); experiment: KDR kinase assay (HTScan VEGFR-2 kit, DELFIA); conditions: for inhibition at 0.1 µM: compound at 0.1 μM, read-out: KDR 0.1 μM, % of inhibition relative to control; for inhibition at 1 µM: compound at 1 μM, read-out: KDR 1 μM, % of inhibition relative to control
T2 construct: human VEGFR-2 (Val789-Val1356); GST (N); purchased Cell Signaling Technology; host or cells: baculovirus expression system
How it was run: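 GST-tagged human VEGFR-2 (Val789-Val1356) from baculovirus, with 1.5 μM biotinylated gastrin precursor peptide and 20 μM ATP in HEPES pH 7.5, Mg/Mn, vanadate, DTT, 1% DMSO. Pre-incubation 5 min, reaction 30 min at room temperature; phosphorylation read by DELFIA.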

[3] = molecular target: T3, human FLT-3 (Arg571-Ser993) (Homo sapiens, UniProt P36888); experiment: FLT-3 kinase assay (HTScan kit, DELFIA); conditions: for inhibition at 1 µM: compound at 1 μM, read-out: FLT-3 1 μM, % of inhibition relative to control; for inhibition at 0.1 µM: compound at 0.1 μM, read-out: FLT-3 0.1 μM, % of inhibition relative to control
T3 construct: human FLT-3 (Arg571-Ser993); GST (N); purchased Cell Signaling Technology; host or cells: baculovirus expression system
T3 sequence (P36888 571-993): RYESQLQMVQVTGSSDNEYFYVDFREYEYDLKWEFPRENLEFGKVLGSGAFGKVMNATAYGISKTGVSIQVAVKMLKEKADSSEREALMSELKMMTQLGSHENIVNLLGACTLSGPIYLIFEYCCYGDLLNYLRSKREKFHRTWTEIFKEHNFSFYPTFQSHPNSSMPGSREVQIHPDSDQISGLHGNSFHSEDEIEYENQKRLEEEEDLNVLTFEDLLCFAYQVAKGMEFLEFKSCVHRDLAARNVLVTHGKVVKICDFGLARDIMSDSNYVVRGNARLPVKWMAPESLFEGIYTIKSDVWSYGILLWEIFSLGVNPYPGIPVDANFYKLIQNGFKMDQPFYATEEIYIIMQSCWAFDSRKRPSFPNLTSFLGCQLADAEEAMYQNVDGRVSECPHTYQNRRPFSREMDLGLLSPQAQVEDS
How it was run: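 GST-tagged human FLT-3 (Arg571-Ser993, baculovirus-expressed) phosphorylated 1.5 μM biotinylated gastrin precursor peptide with 20 μM ATP in HEPES pH 7.5, Mg/Mn buffer and 1% DMSO. After 5 min preincubation, the reaction ran 30 min at room temperature. Phosphorylation was read by DELFIA.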

[4] = molecular target: T4, human PDGFRβ (Gln557-Leu1106) (Homo sapiens, UniProt P09619); experiment: PDGFR-beta kinase assay (HTScan kit, DELFIA); conditions: compound at 10 μM
T4 construct: human PDGFRβ (Gln557-Leu1106); GST (N); purchased Cell Signaling Technology; host or cells: baculovirus expression system
Method: (§1) Compounds 1-100 were treated for their efficacy in inhibiting activities of FLT-3, c-KIT, KDR/Flk-1, PDGFR-beta, EGFR, and PKC kinases by biochemical DELFIA (Dissociation Enhanced Lanthanide FIA) assays according to the procedure described below. The assays were conducted by, Division of Cell Engineering, Biomedical Engineering Research Laboratories, Industrial Technology Research Institute, Bldg. 53, 195, sec. 4, Chung Hsing Rd. Chutung, Hsinchu, Taiwan 310, R.O.C.
The PDGFR-beta assay was conducted following the protocol described in Protocol for HTScan® PDGFR-beta Kinase Assay Kit (Cell Signaling Technology®). The assay was conducted under the following conditions: PDGFR-beta source: The GST-Kinase fusion protein was produced using a baculovirus expression system with a construct expressing human PDGFRβ (Gln557-Leu1106) (GenBank Accession No. NM_002609) with an amino-terminal GST tag, substrate: This biotinylated peptide contains the residues surrounding Tyr-589 of FLT-3, vehicle: 1% DMSO, pre-incubation time/temperature: 5 minutes at room temperature, incubation time/temperature: 30 minutes at room temperature, incubation buffer: 60 mM HEPES pH 7.5, 5 mM MgCl2, 5 mM MnCl2, 3 μM Na3VO4, 1.25 mM DTT, 20 μM ATP, and quantitative method: DELFIA® Assay.

[5] = molecular target: T5, human EGFR (His672-Ala1210) (Homo sapiens, UniProt P00533); experiment: EGFR kinase assay (HTScan kit, DELFIA); conditions: for inhibition at 0.1 µM: compound at 0.1 μM, read-out: EGFR 0.1 μM, % of inhibition relative to control; for inhibition at 1 µM: compound at 1 μM, read-out: EGFR 1 μM, % of inhibition relative to control
T5 construct: human EGFR (His672-Ala1210); GST (N); purchased Cell Signaling Technology; host or cells: baculovirus expression system
Method: as §1
The EGFR assay was conducted following the protocol described in Protocol for HTScan® EGFR Kinase Assay Kit (Cell Signaling Technology®). The assay was conducted under the following conditions: EGFR source: The GST-kinase fusion protein was produced using a baculovirus expression system with a construct expressing human EGFR (His672-Ala1210) (GenBank Accession No. NM_005228) with an amino-terminal GST tag, substrate: 1.5 μM This biotinylated peptide contains the residues surrounding Tyr-66 of PTP1B, vehicle: 1% DMSO, pre-incubation time/temperature: 5 minutes at room temperature, incubation time/temperature: 30 minutes at room temperature, incubation buffer: 60 mM HEPES pH 7.5, 5 mM MgCl2, 5 mM MnCl2, 3 μM Na3VO4, 1.25 mM DTT, 20 μM ATP, and quantitative method: DELFIA® Assay.

T4 sequence (P09619 557-1106): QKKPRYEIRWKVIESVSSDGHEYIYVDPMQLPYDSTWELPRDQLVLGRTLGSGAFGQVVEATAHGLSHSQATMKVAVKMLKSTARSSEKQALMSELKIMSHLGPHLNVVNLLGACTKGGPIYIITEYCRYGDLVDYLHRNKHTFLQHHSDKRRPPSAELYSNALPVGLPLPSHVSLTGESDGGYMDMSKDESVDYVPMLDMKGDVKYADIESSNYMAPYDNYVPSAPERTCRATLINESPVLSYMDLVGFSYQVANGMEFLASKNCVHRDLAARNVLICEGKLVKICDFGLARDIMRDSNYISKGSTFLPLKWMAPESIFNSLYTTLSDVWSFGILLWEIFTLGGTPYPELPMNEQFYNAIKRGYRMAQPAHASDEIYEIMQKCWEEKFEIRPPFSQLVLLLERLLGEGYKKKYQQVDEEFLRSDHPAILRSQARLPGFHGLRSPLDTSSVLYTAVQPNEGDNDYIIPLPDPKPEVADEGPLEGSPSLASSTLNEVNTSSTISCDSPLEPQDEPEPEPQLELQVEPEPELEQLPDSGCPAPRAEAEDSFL
T1 sequence (P10721 544-976): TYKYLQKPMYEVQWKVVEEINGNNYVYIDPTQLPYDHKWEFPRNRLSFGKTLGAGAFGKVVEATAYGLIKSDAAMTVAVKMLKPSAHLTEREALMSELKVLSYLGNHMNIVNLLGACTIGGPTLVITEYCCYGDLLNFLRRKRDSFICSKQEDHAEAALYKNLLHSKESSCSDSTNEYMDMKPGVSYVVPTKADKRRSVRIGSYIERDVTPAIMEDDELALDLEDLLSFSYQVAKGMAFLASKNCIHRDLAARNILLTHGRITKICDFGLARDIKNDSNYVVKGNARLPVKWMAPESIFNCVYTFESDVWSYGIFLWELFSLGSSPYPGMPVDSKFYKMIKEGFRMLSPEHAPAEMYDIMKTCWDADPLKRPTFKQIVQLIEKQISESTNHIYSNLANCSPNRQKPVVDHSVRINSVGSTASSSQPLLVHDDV
T5 sequence (P00533 672-1210): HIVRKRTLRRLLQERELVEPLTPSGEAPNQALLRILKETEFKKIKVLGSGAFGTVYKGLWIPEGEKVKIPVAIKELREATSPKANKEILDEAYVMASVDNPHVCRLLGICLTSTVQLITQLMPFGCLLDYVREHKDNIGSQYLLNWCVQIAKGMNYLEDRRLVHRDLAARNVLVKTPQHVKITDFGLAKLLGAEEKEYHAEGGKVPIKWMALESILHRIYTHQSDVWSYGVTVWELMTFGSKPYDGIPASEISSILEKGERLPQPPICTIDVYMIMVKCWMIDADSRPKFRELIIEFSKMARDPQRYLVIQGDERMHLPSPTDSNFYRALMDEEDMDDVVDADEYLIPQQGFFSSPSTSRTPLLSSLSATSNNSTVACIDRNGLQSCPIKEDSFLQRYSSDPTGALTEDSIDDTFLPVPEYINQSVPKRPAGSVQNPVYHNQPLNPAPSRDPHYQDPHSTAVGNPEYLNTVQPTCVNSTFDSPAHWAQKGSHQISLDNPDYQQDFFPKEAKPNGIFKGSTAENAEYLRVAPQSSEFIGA
T2 sequence (P35968 789-1356): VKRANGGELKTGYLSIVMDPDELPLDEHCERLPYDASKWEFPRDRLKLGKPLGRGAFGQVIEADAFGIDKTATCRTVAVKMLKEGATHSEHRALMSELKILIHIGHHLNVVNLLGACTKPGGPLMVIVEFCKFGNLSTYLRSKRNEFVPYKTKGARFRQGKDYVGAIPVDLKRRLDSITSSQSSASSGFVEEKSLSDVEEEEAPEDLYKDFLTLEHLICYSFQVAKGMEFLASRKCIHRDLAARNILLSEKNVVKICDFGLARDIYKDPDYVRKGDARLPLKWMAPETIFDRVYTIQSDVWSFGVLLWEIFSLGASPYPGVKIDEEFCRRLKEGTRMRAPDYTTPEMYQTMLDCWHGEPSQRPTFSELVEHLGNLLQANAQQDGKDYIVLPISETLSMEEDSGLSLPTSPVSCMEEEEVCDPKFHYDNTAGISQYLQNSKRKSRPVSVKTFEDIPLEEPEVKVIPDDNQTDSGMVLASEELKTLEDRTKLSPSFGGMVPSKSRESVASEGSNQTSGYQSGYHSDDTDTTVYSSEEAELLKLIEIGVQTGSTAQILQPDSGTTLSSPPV

Row | SMILES | inhibition at 0.1 µM [1] [%] | inhibition at 1 µM [1] [%] | inhibition at 0.1 µM [2] [%] | inhibition at 1 µM [2] [%] | inhibition at 1 µM [3] [%] | PDGFR-β 10 μM, % of inhibition relative to control [4] [%] | inhibition at 0.1 µM [3] [%] | inhibition at 0.1 µM [5] [%] | inhibition at 1 µM [5] [%] | pIC50 ([1]; read-out: c-KIT kinase inhibition (IC50)) | pIC50 ([3]; read-out: FLT-3 kinase inhibition (IC50))
1 | O=C1Nc2ccc([N+](=O)[O-])cc2/C1=C/c1ccc2cccccc1-2 [Compound 8, 3-Azulen-1-ylmethylene-5-nitro-1,3-dihydro-indol-2-one] | 36.4 | 36.4 | 26.4 | 55.9 | 11.5 | 16.2 |  |  |  |  | 
2 | Cc1cc(C)c2ccc(/C=C3/C(=O)N(Cc4ccccc4)c4ccccc43)c-2c(C)c1 [Compound 10, 1-Benzyl-3-(4,6,8-trimethyl-azulen-1-ylmethylene)-1,3-dihydro-indol-2-one] | 8.4 | 8.4 | 22.1 | 38.5 |  | 18.6 |  |  |  |  | 
3 | O=C1Nc2ccc(Br)cc2/C1=C/c1ccc2cccccc1-2 [Compound 6, 3-Azulen-1-ylmethylene-5-bromo-1,3-dihydro-indol-2-one] | 36.6 | 36.6 | 19.6 | 29.7 |  | 35.5 |  |  |  |  | 
4 | O=C1Nc2ccc(Cl)cc2/C1=C\c1ccc2cccccc1-2 [Compound 22, 3-Azulen-1-ylmethylene-5-chloro-1,3-dihydro-indol-2-one] | 16.6 | 16.6 | 15.6 | 40.6 | 30.3 | 5.3 | 28.8 |  |  |  | 
5 | O=C1Nc2ccccc2/C1=C\c1c2cccccc-2[nH]c1=O [Compound 27, 3-(2-Oxo-1,2-dihydro-indol-3-ylidenemethyl)-1H-cyclohepta[b]pyrrol-2-one] | 25.7 | 25.7 | 25.9 | 39.5 | 30.9 | 5.3 | 8.6 |  |  |  | 
6 | COC(=O)c1cc(/C=C2\C(=O)Nc3ccccc32)c2cccccc1-2 [Compound 16, 3-(2-Oxo-1,2-dihydro-indol-3-ylidenemethyl)-azulene-1-carboxylic acid methyl ester] | 2.8 | 2.8 | 15.4 | 20.1 |  | 3.6 | 7.7 |  |  |  | 
7 | O=C1/C(=C/c2ccc3cccccc2-3)c2ccccc2N1C(c1ccccc1)c1ccccc1 [Compound 3, 3-Azulen-1-ylmethylene-1-benzhydryl-1,3-dihydro-indol-2-one] |  |  |  |  | 5.1 | 14.4 |  |  |  |  | 
8 | Cc1cc(C)c2ccc(/C=C3/C(=O)Nc4ccccc43)c-2c(C)c1 [Compound 9, 3-(4,6,8-Trimethyl-azulen-1-ylmethylene)-1,3-dihydro-indol-2-one] | 11.5 | 11.5 | 12.3 | 33.4 | 3.8 | 14.7 |  |  |  |  | 
9 | O=C1Nc2ccc(Br)cc2/C1=C\c1ccc2cccccc1-2 [Compound 7, 3-Azulen-1-ylmethylene-5-bromo-1,3-dihydro-indol-2-one] | 30.9 | 30.9 | 29.5 | 28.8 | 40.1 | 4.7 | 17.8 |  |  |  | 
10 | O=C1Nc2ccc(F)cc2/C1=C/c1ccc2cccccc1-2 [Compound 26, 3-Azulen-1-ylmethylene-5-fluoro-1,3-dihydro-indol-2-one] | 60.4 | 60.4 | 33.9 | 59.1 | 34.7 | 7.9 | 5 |  |  |  | 
11 | O=C1C(=Cc2ccc3cccccc2-3)c2ccccc2N1Cc1ccccc1 [Compound 2, 3-Azulen-1-ylmethylene-1-benzyl-1,3-dihydro-indol-2-one] | 24.7 | 24.7 |  | 10.3 |  | 3.6 |  |  |  |  | 
12 | O=C1Nc2ccc(F)cc2/C1=C\c1cc2cccccc-2c1 [Compound 40, 3-Azulen-2-ylmethylene-5-fluoro-1,3-dihydro-indol-2-one] | 80 | 80 | 13.8 | 22.2 | 95.5 |  | 84.3 | 10 | 17.3 |  | 
13 | O=C1Nc2ccc(F)cc2/C1=C/c1cc2cccccc-2c1 [Compound 41, 3-Azulen-2-ylmethylene-5-fluoro-1,3-dihydro-indol-2-one] | 76.6 | 76.6 | 25.2 | 30.4 | 87.6 |  | 74.7 | 6.4 | 9.4 | 8.22 | 7.36
14 | Cc1cc(/C=C2/C(=O)Nc3ccccc32)c2c(C)ccc(C(C)C)cc1-2 [Compound 12, 3-(5-Isopropyl-3,8-dimethyl-azulen-1-ylmethylene)-1,3-dihydro-indol-2-one] | 14.7 | 14.7 | 17.3 | 34.3 |  | 7.3 |  |  |  |  | 
15 | O=C1Nc2ccccc2/C1=C\c1cc2cccccc-2c1 [Compound 32, 3-Azulen-2-ylmethylene-1,3-dihydro-indol-2-one] | 60.3 | 60.3 |  | 6.2 | 89.5 |  | 48.5 | 7.7 | 13.7 |  | 
